Measured values published in US8394774B2, “Pesticidal compositions” (Dow AgroSciences, LLC., priority 2009, dated 2013).
Where two headings read alike, the source gives them in different places.

How the values were obtained:
[1] = test system: beet armyworm (BAW; Spodoptera exigua: Lepidoptera); test: 128-well diet tray assay on beet armyworm (BAW 50); assay type: in vivo; conditions: 144 h, read-out: BAW 50
Method: (§1) Bioassays on beet armyworm (BAW; Spodoptera exigua: Lepidoptera) were conducted using either a 96-well microtiter plate-based high throughput (HTS) bioassay or a 128-well diet tray assay. The HTS assay is based on a modification of Lewer et al. J. Nat. Prod. 2006, 69, 1506. BAW eggs were placed on top of artificial diet (100 μL) in each well of a 96-well microtiter plate. The diet was pretreated with test compounds (12 μg dissolved in 30 μL of DMSO-acetone-H2O mixture) layered on top of the diet using a liquid handling system and then allowed to dry for several hours. Infested plates were then covered with a layer of sterile cotton batting and the plate lid, and then held in the dark at 29° C. Mortality was recorded at 6 days post-treatment. Each plate had six replicates. The percent mortality was calculated from the average of the six replicates. In the case of the 128-well diet assay, three to five second instar BAW larvae were placed in each well (3 mL) of the diet tray that had been previously filled with 1 mL of artificial diet to which 50 ug/cm^2 of the test compound (dissolved in 50 μL of 90:10 acetone-water mixture) had been applied (to each of eight wells) and then allowed to dry. Trays were covered with a clear self-adhesive cover, and held at 25° C., 14:10 light-dark for six days. Percent mortality was recorded for the larvae in each well; activity in the eight wells was then averaged. In Table 4, under both the BAW HTS and BAW 50 headings, an “A” means that the compound was tested and at least 50 percent mortality was observed whereas, “B” means that either (1) the compound was tested and less than 50 percent mortality was observed or (2) the compound was not tested.

[2] = test system: beet armyworm (BAW; Spodoptera exigua: Lepidoptera); test: 96-well microtiter plate-based high throughput (HTS) bioassay on beet armyworm (BAW HTS); assay type: in vivo; conditions: 144 h, read-out: BAW HTS
Method: as §1

[3] = percent mortality, 128-well diet assay, 50 ug/cm^2 of test compound on diet, second instar BAW larvae, six days, 25° C., average of eight wells
[4] = percent mortality, 96-well HTS, 12 μg test compound on diet, BAW eggs, 6 days post-treatment, 29° C., average of six replicates

CCCO[C@@H]1[C@@H](OC)[C@H](C)O[C@@H](O/N=C/c2ccc(/C=C/c3ccc(OC(F)(F)F)cc3)cc2)[C@@H]1OC [Compound 1, 4-[(E)-2-(4-trifluoromethoxyphenyl)-vinyl]-benzaldehyde O-((2S,3R,4R,5S,6S)-3,5-dimethoxy-6-methyl-4-propoxy-tetrahydropyran-2-yl)-oxime]
pest or weed control at 50 µg/cm2, 50 µg/cm2 [1, 3]: > 50%
pest or weed control at 12 µg/well, 12 µg/well [2, 4]: > 50%

CCO[C@@H]1[C@@H](OC)[C@H](C)O[C@@H](O/N=C/c2ccc(/C=C/c3ccc(C(F)(F)F)cc3)cc2)[C@@H]1OC [Compound 2, 4-[(E)-2-(4-Trifluoromethylphenyl)-vinyl]-benzaldehyde O-((2S,3R,4R,5S,6S)-4-ethoxy-3,5-dimethoxy-6-methyl-tetrahydropyran-2-yl)-oxime]
pest or weed control at 50 µg/cm2, 50 µg/cm2 [1, 3]: > 50%
pest or weed control at 12 µg/well, 12 µg/well [2, 4]: > 50%

CCO[C@@H]1[C@@H](OC)[C@H](C)O[C@@H](O/N=C/c2ccc(/C=C/c3ccc(C(F)(F)C(F)(F)OC(F)(F)C(F)(F)C(F)(F)F)cc3)cc2)[C@@H]1OC [Compound 3]
pest or weed control at 50 µg/cm2, 50 µg/cm2 [1, 3]: < 50%
pest or weed control at 12 µg/well, 12 µg/well [2, 4]: < 50%

CCO[C@@H]1[C@@H](OC)[C@H](C)O[C@@H](O/N=C/c2ccc(/C=C/c3ccc(C(C)=O)cc3)cc2)[C@@H]1OC [Compound 4, 4-[(E)-2-(4-Acetyl-phenyl)-vinyl]-benzaldehyde O-((2S,3R,4R,5S,6S)-4-ethoxy-3,5-dimethoxy-6-methyl-tetrahydropyran-2-yl)-oxime]
pest or weed control at 50 µg/cm2, 50 µg/cm2 [1, 3]: < 50%
pest or weed control at 12 µg/well, 12 µg/well [2, 4]: < 50%

CCO[C@@H]1[C@@H](OC)[C@H](C)O[C@@H](O/N=C/c2ccc(/C=C/c3ccc(OC(F)(F)F)cc3)cc2)[C@@H]1OC [Compound 5, 4-[(E)-2-(4-Trifluoromethoxyphenyl)-vinyl]-benzaldehyde O-((2S,3R,4R,5S,6S)-4-ethoxy-3,5-dimethoxy-6-methyl-tetrahydropyran-2-yl)-oxime]
pest or weed control at 50 µg/cm2, 50 µg/cm2 [1, 3]: > 50%
pest or weed control at 12 µg/well, 12 µg/well [2, 4]: < 50%

CCO[C@@H]1[C@@H](OC)[C@H](C)O[C@@H](O/N=C/c2ccc(/C=C/c3cccc(C(F)(F)F)c3)cc2)[C@@H]1OC [Compound 6, 4-[(E)-2-(3-Trifluoromethylphenyl)-vinyl]-benzaldehyde O-((2S,3R,4R,5S,6S)-4-ethoxy-3,5-dimethoxy-6-methyl-tetrahydropyran-2-yl)-oxime]
pest or weed control at 50 µg/cm2, 50 µg/cm2 [1, 3]: > 50%
pest or weed control at 12 µg/well, 12 µg/well [2, 4]: > 50%

CCO[C@@H]1[C@@H](OC)[C@H](C)O[C@@H](O/N=C/c2ccc(/C=C/c3ccc(OC(F)(F)C(F)(F)F)cc3)cc2)[C@@H]1OC [Compound 7, 4-[(E)-2-(4-Pentafluoroethyloxyphenyl)-vinyl]-benzaldehyde O-((2S,3R,4R,5S,6S)-4-ethoxy-3,5-dimethoxy-6-methyl-tetrahydropyran-2-yl)-oxime]
pest or weed control at 50 µg/cm2, 50 µg/cm2 [1, 3]: > 50%
pest or weed control at 12 µg/well, 12 µg/well [2, 4]: < 50%

CO[C@@H]1[C@@H](OC)[C@H](C)O[C@@H](O/N=C/c2ccc(/C=C/c3ccc(OC(F)(F)F)cc3)cc2)[C@@H]1OC [Compound 8]
pest or weed control at 50 µg/cm2, 50 µg/cm2 [1, 3]: > 50%
pest or weed control at 12 µg/well, 12 µg/well [2, 4]: > 50%

CO[C@@H]1[C@@H](OC)[C@H](C)O[C@@H](O/N=C/c2ccc(/C=C/c3cccc(C(F)(F)F)c3)cc2)[C@@H]1OC [Compound 9, 4-[(E)-2-(3-Trifluoromethylphenyl)-vinyl]-benzaldehyde O-((2S,3R,4R,5S,6S)-3,4,5-trimethoxy-6-methyl-tetrahydropyran-2-yl)-oxime]
pest or weed control at 50 µg/cm2, 50 µg/cm2 [1, 3]: > 50%
pest or weed control at 12 µg/well, 12 µg/well [2, 4]: < 50%

CCCO[C@@H]1[C@@H](OC)[C@H](C)O[C@@H](O/N=C/c2ccc(/C=C/c3ccc(C(F)(F)F)cc3)cc2)[C@@H]1OC [Compound 10, 4-[(E)-2-(4-Trifluoromethylphenyl)-vinyl]-benzaldehyde O-((2S,3R,4R,5S,6S)-4-propoxy-3,5-dimethoxy-6-methyl-tetrahydropyran-2-yl)-oxime]
pest or weed control at 50 µg/cm2, 50 µg/cm2 [1, 3]: > 50%
pest or weed control at 12 µg/well, 12 µg/well [2, 4]: > 50%

CCO[C@@H]1[C@@H](OC)[C@H](C)O[C@@H](O/N=C/c2ccc(/C=C/c3ccc(C(O)(C(F)(F)F)C(F)(F)F)cc3)cc2)[C@@H]1OC [Compound 11, 4-{(E)-2-[4-(2,2,2-Trifluoro-1-hydroxy-1-trifluoromethyl-ethyl)-phenyl]-vinyl}-benzaldehyde O-((2S,3R,4R,5S,6S)-4-ethoxy-3,5-dimethoxy-6-methyl-tetrahydropyran-2-yl)-oxime]
pest or weed control at 50 µg/cm2, 50 µg/cm2 [1, 3]: < 50%
pest or weed control at 12 µg/well, 12 µg/well [2, 4]: > 50%

CO[C@@H]1[C@@H](OC)[C@H](C)O[C@@H](O/N=C/c2ccc(/C=C/c3ccc(C(F)(F)F)cc3)cc2)[C@@H]1OC [Compound 12, 4-[(E)-2-(4-Trifluoromethylphenyl)-vinyl]-benzaldehyde O-((2S,3R,4R,5S,6S)-3,4,5-trimethoxy-6-methyl-tetrahydropyran-2-yl)-oxime]
pest or weed control at 50 µg/cm2, 50 µg/cm2 [1, 3]: > 50%
pest or weed control at 12 µg/well, 12 µg/well [2, 4]: > 50%

CCO[C@@H]1[C@@H](OC)[C@H](C)O[C@@H](O/N=C/c2ccc(C#Cc3ccc(OC(F)(F)F)cc3)cc2)[C@@H]1OC [Compound 13, 4-(4-trifluoromethoxyphenylethynyl)-benzaldehyde O-((2S,3R,4R,5S,6S)-4-ethoxy-3,5-dimethoxy-6-methyl-tetrahydropyran-2-yl)-oxime]
pest or weed control at 50 µg/cm2, 50 µg/cm2 [1, 3]: > 50%
pest or weed control at 12 µg/well, 12 µg/well [2, 4]: > 50%

CCO[C@@H]1[C@@H](OC)[C@H](C)O[C@@H](O/N=C/c2ccc(C#Cc3ccc(C(F)(F)F)cc3)cc2)[C@@H]1OC [Compound 14, 4-(4-Trifluoromethylphenylethynyl)-benzaldehyde O-((2S,3R,4R,5S,6S)-4-ethoxy-3,5-dimethoxy-6-methyl-tetrahydropyran-2-yl)-oxime]
pest or weed control at 50 µg/cm2, 50 µg/cm2 [1, 3]: > 50%
pest or weed control at 12 µg/well, 12 µg/well [2, 4]: > 50%

CO[C@@H]1[C@@H](OC)[C@H](C)O[C@@H](O/N=C/c2ccc(C#Cc3ccc(C(F)(F)F)cc3)cc2)[C@@H]1OC [Compound 15, 4-(4-Trifluoromethylphenylethynyl)-benzaldehyde O-((3R,4R,5S,6S)-3,4,5-trimethoxy-6-methyl-tetrahydropyran-2-yl)-oxime]
pest or weed control at 50 µg/cm2, 50 µg/cm2 [1, 3]: > 50%
pest or weed control at 12 µg/well, 12 µg/well [2, 4]: > 50%

CCO[C@@H]1[C@@H](OC)[C@H](C)O[C@@H](OC(=O)Nc2ccc(/C=C/c3ccc(C(F)(F)F)cc3)cc2)[C@@H]1OC [Compound 16, {4-[(E)-2-(4-trifluoromethylphenyl)-vinyl]-phenyl}-carbamic acid (2S,3R,4R,5S,6S)-4-ethoxy-3,5-dimethoxy-6-methyl-tetrahydropyran-2-yl ester]
pest or weed control at 50 µg/cm2, 50 µg/cm2 [1]: > 50%
pest or weed control at 12 µg/well, 12 µg/well [2]: > 50%

CCOc1ccc(/C=C/c2ccc(NC(=O)O[C@@H]3O[C@@H](C)[C@H](OC)[C@@H](OC)[C@H]3OC)cc2)cc1 [Compound 17, {4-[(E)-2-(4-Ethoxyphenyl)-vinyl]-phenyl}-carbamic acid (2S,3R,4R,5S,6S)-3,4,5-tri-methoxy-6-methyl-tetrahydropyran-2-yl ester]
pest or weed control at 50 µg/cm2, 50 µg/cm2 [1]: > 50%
pest or weed control at 12 µg/well, 12 µg/well [2]: < 50%

CCCO[C@@H]1[C@@H](OC)[C@H](C)O[C@@H](OC(=O)Nc2ccc(/C=C/c3ccc(OC(F)(F)C(F)(F)F)cc3)cc2)[C@@H]1OC [Compound 18, {4-[(E)-2-(4-Pentafluoroethyloxyphenyl)-vinyl]-phenyl}-carbamic acid (2S,3R,4R,5S,6S)-4-propoxy-3,5-dimethoxy-6-methyl-tetrahydropyran-2-yl ester]
pest or weed control at 50 µg/cm2, 50 µg/cm2 [1]: > 50%
pest or weed control at 12 µg/well, 12 µg/well [2]: < 50%

CCO[C@@H]1[C@@H](OC)[C@H](C)O[C@@H](OC(=O)Nc2ccc(/N=N/c3cccc(OC(F)(F)F)c3)cc2)[C@@H]1OC [Compound 19, [4-(3-trifluoromethoxyphenylazo)-phenyl]-carbamic acid (2S,3R,4R,5S,6S)-3,5-dimethoxy-4-ethoxy-6-methyl-tetrahydropyran-2-yl ester]
pest or weed control at 50 µg/cm2, 50 µg/cm2 [1]: > 50%
pest or weed control at 12 µg/well, 12 µg/well [2]: > 50%

CCO[C@@H]1[C@@H](OC)[C@H](C)O[C@@H](OC(=O)Nc2ccc(/N=N/c3ccc(OC(F)(F)F)cc3)cc2)[C@@H]1OC [Compound 20, [4-(4-Trifluoromethoxy-phenylazo)-phenyl]-carbamic acid (2S,3R,4R,5S,6S)-4-ethoxy-3,5-dimethoxy-6-methyl-tetrahydropyran-2-yl ester]
pest or weed control at 50 µg/cm2, 50 µg/cm2 [1]: > 50%
pest or weed control at 12 µg/well, 12 µg/well [2]: > 50%

CCO[C@@H]1[C@@H](OC)[C@H](C)O[C@@H](OC(=O)Nc2ccc(/N=N/c3ccc(C(F)(F)F)cc3)cc2)[C@@H]1OC [Compound 21, [4-(4-Trifluoromethylphenylazo)-phenyl]-carbamic acid (2S,3R,4R,5S,6S)-4-ethoxy-3,5-dimethoxy-6-methyl-tetrahydropyran-2-yl ester]
pest or weed control at 50 µg/cm2, 50 µg/cm2 [1]: < 50%
pest or weed control at 12 µg/well, 12 µg/well [2]: > 50%
